Experimental data reported in patent US20060004104A1, “Methods and compositions for treatment of cancer pain” (priority 2002, published 2006).

Experiments:
Assay type in all cases: in vivo
[1] = tested on: intra-tibial MRMT-1 rat mammary gland carcinoma cells (bone cancer pain); assay: Rat model of bone cancer pain: weight-bearing difference (hind limb sparing); conditions: for weight-bearing difference between contralateral and ipsilateral paw: measured 1 hour after drug administration
Procedure: Adult female rats are given intra-tibial injections of MRMT-1 rat mammary gland carcinoma cells (3 μl, 10^7 cells/ml). These animals gradually develop mechanical hyperalgesia, mechanical allodynia (skin sensitivity to non-noxious stimuli) and hind limb sparing, beginning on day 12-14 following cell injection. […] Intra-tibial inoculation of MRMT-1 cells induces a time-dependent hypersensitivity in the ipsilateral limb, measured as a shift in body weight to the contralateral limb. The increase in weight-bearing difference between contralateral and ipsilateral paw (weight shift from the affected to the unaffected limb) is evident by day 14 post-inoculation and continues to increase until day 20. […] This effect is significant for COX189 on days 10, 14, 17 and 20 as well as for valdecoxib (30 mg/kg, p.o.) on day 20. […] Lower doses are not studied. […] The treatments induces a progressive and long-lasting reduction in hypersensitivity, since the weight-bearing difference is also attenuated when measured 1 h before the first daily treatment. This preventative effect reaches significant levels for all three treatments on days 14 and 17. There is no significant difference between the effects measured before and after COX189 administration on each day for any individual treatment.

[2] = tested on: intra-tibial MRMT-1 rat mammary gland carcinoma cells (bone cancer pain); assay: Rat model of bone cancer pain: mechanical allodynia (static and dynamic); conditions: day 20; for static allodynia (punctuate stimulus), ipsilateral paw: 90 minutes after the last administration
Procedure: Adult female rats are given intra-tibial injections of MRMT-1 rat mammary gland carcinoma cells (3 μl, 10^7 cells/ml). These animals gradually develop mechanical hyperalgesia, mechanical allodynia (skin sensitivity to non-noxious stimuli) and hind limb sparing, beginning on day 12-14 following cell injection.

[3] = tested on: intra-tibial MRMT-1 rat mammary gland carcinoma cells (bone cancer); assay: Rat model of bone cancer pain: radiologically observed structural changes and bone mineral density
Procedure: Adult female rats are given intra-tibial injections of MRMT-1 rat mammary gland carcinoma cells (3 μl, 10^7 cells/ml).

[4] = 30 mg/kg repeated administration, day 20

| SMILES | weight-bearing difference between contralateral and ipsilateral paw ([1]; 10 mg/kg p.o. repeated from day 10 post-inoculation, days 14, 17 and 20) | weight-bearing difference between contralateral and ipsilateral paw ([1]; 30 mg/kg p.o. repeated from day 10 post-inoculation, days 14, 17 and 20) | dose-dependence of the effect on weight-bearing difference ([1]; 10 versus 30 mg/kg p.o.) | static allodynia (punctuate stimulus), ipsilateral paw ([2]; 10 mg/kg p.o. repeated) | dynamic allodynia (light stroking of the skin), ipsilateral paw ([2]; 30 mg/kg p.o. repeated) | static allodynia (punctuate stimulus), ipsilateral paw ([2]; 30 mg/kg p.o. repeated) | radiologically observed structural changes ([3]; 10 mg/kg repeated administration, day 20) | loss of bone mineral density compared to vehicle treated animals [3, 4] | radiologically observed structural changes [3, 4] | radiologically observed structural changes in an animal model of bone cancer pain ([3]; summary statement, no dose given) | weight-bearing difference between contralateral and ipsilateral paw ([1]; 30 mg/kg p.o. repeated, day 20) |
| --- | --- | --- | --- | --- | --- | --- | --- | --- | --- | --- | --- |
| Cc1ccc(Nc2c(F)cccc2Cl)c(CC(=O)O)c1 [COX189, 5-methyl-2-(2′-chloro-6′-fluoroanilino)-phenylacetic acid] | significantly attenuates | significantly attenuates | not dose-dependent | significantly reverses | reaches statistical significance | significantly reverses | significantly inhibits | significantly inhibit | significantly inhibits | inhibit | – |
| Cc1onc(-c2ccccc2)c1-c1ccc(S(N)(=O)=O)cc1 [valdecoxib, reference compound] | – | – | – | – | – | significantly reverses | – | – | – | – | significant |
